Test results taken from patent US11306084B2, “Integrin antagonists” (Saint Louis University, priority 2016, dated 2022).
Where a name gives a salt, the structure may show the parent alone.

Legend:
Type in all cases: binding
[1] = target: T1, Recombinant human integrin ανβ6 (Homo sapiens, UniProt P06756+P18564); assay: Solid Phase Receptor Assay (SPRA) for ανβ6 function; details: plate-bound human LAP; read-out: αvβ6 SPRA IC50
T1 construct: purchased R&D Systems 3817-AV
Procedure: E. Solid Phase Receptor Assay (SPRA) for ανβ6 Function
Wells were washed 3 times with 150 μL TBS+, and then 150 μL of blocking buffer (TBS+ with 1% bovine serum albumin, Sigma A7906) was added. The plate was incubated for 1 hr at 37° C., and then washed 3× with TBS+ buffer. […] Compounds were diluted to 20 μM and then 1 μL was added to each well of the plate according to a standard template with each sample repeated in triplicate. After incubation for two hours at room temperature, the plate was washed 3× with 150 μL of TBS+ buffer. To each well, 50 μL of biotinylated anti-αν antibody (R&D Systems, BAF1219) at 0.5 μg/mL in TBS+/0.1% BSA were added and the plate was covered and incubated for 1 hr at room temperature. After washing the plate 3× with 150 μL of TBS+ buffer, 50 μL of streptavidin-conjugated horseradish peroxidase (R&D Systems, DY998) diluted in TBS+ blocking buffer were added to the wells and the plate incubated for 20 min at room temperature. The plate was washed 3× with TBS+ buffer followed by 50 μL of TMB substrate (Sigma T4444) added to each well in the dark and the plate incubated for 10 min at room temperature. 25 μL of 1.0 M phosphoric acid was added as a stop solution and the plates were read at 450 nm using a Spectramax plate reader.

[2] = target: T2, Recombinant human integrin ανβ8 (Homo sapiens, UniProt P06756+P26012); assay: Solid Phase Receptor Assay (SPRA) for ανβ8 function; details: plate-bound human LAP; read-out: αvβ8 SPRA IC50
T2 construct: purchased R&D Systems 4135-AV
Procedure: F. Solid Phase Receptor Assay (SPRA) for ανβ8 Function
Wells were washed 3 times with 150 μL TBS+ and then 150 μL of blocking buffer (TBS+ with 1% bovine serum albumin, Sigma A7906) was added. The plate was incubated for 1 hr at 37° C. and then washed 3× with TBS+. […] Compounds were diluted to 20 μM and 1 μL was added to each well of the plate according to a standard template with each sample repeated in triplicate. After incubation for two hours at room temperature, the plate was washed 3× with 150 μL of TBS+. To each well, 50 μL of biotinylated anti-αν antibody (R&D Systems, BAF1219) at 1 μg/mL in TBS+/0.1% BSA were added and the plate was covered and incubated for 1 hr at room temperature. After washing the plate 3× with 150 μL. of TBS+ buffer, 50 μL of streptavidin-conjugated horseradish peroxidase (R&D Systems, DY998) diluted in TBS+ blocking buffer were added to the wells and the plate incubated for 20 min at room temperature. The plate was washed 3× with TBS+ followed by 50 μL of TMB substrate (Sigma T4444) added to each well in the dark and the plate incubated for 10 min at room temperature. 25 μL of 1.0 M phosphoric acid was added as a stop solution and the plates were read at 450 nm using a Spectramax plate reader.

[3] = target: T3, Recombinant human integrin ανβ1 (Homo sapiens, UniProt P05556+P06756); assay: Solid Phase Receptor Assay (SPRA) for ανβ1 function; details: plate-bound human fibronectin; read-out: αvβ1 SPRA IC50
T3 construct: purchased R&D Systems 6579-AV
Procedure: B. Solid Phase Receptor Assay (SPRA) for ανβ1 Function
Wells were washed 3 times with 150 μL TBS+ and then 150 μL of blocking buffer (TBS+ with 1% bovine serum albumin, Sigma A7906) was added. The plate was incubated for 1 hr at 37° C. and then washed 3× with TBS+ buffer. […] Compounds were diluted to 20 μM and 1 μL was added to each well of the plate according to a standard template with each sample repeated in triplicate. After incubation for two hours at room temperature, the plate was washed 3 with 150 μL of TBS+ buffer. To each well, 50 μL of biotinylated anti-αν antibody (R&D Systems, BAF1219) at 1 μg/mL in TBS+/0.1% BSA were added and the plate covered and incubated for 1 hr at room temperature. After washing the plate 3× with 150 μL of TBS+ buffer, 50 μL of streptavidin-conjugated horseradish peroxidase (R&D Systems, DY998) diluted in TBS+ blocking buffer were added to the wells and the plate incubated for 20 min at room temperature. The plate was washed 3× with TBS+ buffer followed by 50 μL of TMB substrate (Sigma, T4444) added to each well in the dark and the plate incubated for 25 min at room temperature. 25 μL of 1.0 M phosphoric acid was added as a stop solution and the plates were read at 450 nm using a Spectramax plate reader.

[4] = target: T4, Recombinant human integrin ανβ3 (Homo sapiens, UniProt P05106+P06756); assay: Solid Phase Receptor Assay (SPRA) for ανβ3 function; details: plate-bound human vitronectin; read-out: αvβ3 SPRA IC50
T4 construct: purchased R&D Systems 3050-AV
Procedure: C. Solid Phase Receptor Assay (SPRA) for ανβ3 Function
Wells were washed 3 times with 150 μL TBS+ and then 150 μL of blocking buffer (TBS+ with 1% bovine serum albumin, Sigma A7906) was added. The plate was incubated for 1 hr at 37° C. and then washed 3× with TBS+ buffer. […] Compounds were diluted to 20 μM and then 1 μL was added to each well of the plate according to a standard template with each sample repeated in triplicate. After incubation for two hours at room temperature, the plate was washed 3× with 150 μL of TBS+ buffer. To each well, 50 μL of biotinylated anti-αν antibody (R&D Systems, BAF1219) at 0.5 μg/mL in TBS+/0.1% BSA were added and the plate covered and incubated for 1 hr at room temperature. After washing the plate 3× with 150 μL of TBS+ buffer, 50 μL of streptavidin-conjugated horseradish peroxidase (R&D Systems, DY998) diluted in TBS+ blocking buffer were added to the wells and the plate incubated for 20 min at room temperature. The plate was washed 3× with TBS+ buffer followed by 50 μL of TMB substrate (Sigma, T4444) added to each well in the dark and the plate was incubated for 25 min at room temperature. 25 μL of 1.0 M phosphoric acid was added as a stop solution and the plates were read at 450 nm using a Spectramax plate reader.

T1 sequence (P06756 31-992 limits assumed): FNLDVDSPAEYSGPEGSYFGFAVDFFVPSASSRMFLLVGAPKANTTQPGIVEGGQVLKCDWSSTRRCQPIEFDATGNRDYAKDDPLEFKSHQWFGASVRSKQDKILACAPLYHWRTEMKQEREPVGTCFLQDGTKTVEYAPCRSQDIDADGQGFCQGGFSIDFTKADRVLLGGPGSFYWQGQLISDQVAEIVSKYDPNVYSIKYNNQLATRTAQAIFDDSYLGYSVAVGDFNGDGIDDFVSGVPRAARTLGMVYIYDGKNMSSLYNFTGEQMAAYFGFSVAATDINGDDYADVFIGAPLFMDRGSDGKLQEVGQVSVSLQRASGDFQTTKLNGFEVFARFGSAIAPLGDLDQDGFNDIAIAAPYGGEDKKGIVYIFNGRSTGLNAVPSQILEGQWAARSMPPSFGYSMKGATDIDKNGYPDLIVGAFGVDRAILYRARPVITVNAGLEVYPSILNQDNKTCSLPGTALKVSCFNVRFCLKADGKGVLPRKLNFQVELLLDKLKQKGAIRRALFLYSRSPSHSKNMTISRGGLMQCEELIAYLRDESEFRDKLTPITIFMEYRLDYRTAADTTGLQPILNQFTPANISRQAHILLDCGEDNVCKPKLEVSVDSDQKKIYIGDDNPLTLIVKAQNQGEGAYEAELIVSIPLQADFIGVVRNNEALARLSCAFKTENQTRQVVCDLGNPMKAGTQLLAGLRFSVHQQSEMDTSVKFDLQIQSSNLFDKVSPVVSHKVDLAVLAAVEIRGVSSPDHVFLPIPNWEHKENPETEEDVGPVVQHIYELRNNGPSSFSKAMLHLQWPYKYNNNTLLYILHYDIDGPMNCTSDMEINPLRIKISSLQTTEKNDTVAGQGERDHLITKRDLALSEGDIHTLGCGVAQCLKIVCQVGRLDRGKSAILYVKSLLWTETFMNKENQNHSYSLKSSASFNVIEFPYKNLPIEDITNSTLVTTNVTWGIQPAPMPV
T1 sequence (P18564 22-707 limits assumed): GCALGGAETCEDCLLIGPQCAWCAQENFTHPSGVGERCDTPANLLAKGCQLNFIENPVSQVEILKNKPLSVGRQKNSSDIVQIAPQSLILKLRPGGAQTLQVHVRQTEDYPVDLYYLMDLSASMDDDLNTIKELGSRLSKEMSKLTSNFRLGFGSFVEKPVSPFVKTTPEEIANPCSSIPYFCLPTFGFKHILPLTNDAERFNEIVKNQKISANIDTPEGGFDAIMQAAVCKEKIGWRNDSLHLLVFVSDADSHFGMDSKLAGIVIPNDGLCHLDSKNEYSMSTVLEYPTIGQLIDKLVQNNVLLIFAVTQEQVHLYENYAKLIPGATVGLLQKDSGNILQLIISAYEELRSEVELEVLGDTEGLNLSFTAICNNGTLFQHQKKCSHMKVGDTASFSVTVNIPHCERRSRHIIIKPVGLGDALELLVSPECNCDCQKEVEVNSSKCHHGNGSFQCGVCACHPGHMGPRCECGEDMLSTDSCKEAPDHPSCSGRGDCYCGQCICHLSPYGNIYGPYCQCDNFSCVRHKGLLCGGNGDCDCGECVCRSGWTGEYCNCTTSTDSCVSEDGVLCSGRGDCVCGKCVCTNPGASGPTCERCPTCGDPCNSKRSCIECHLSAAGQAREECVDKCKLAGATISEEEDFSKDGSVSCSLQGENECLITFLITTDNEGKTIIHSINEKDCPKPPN
T4 sequence (P06756 31-992 limits assumed): as the sequence (P06756 31-992 limits assumed) above
T4 sequence (P05106 27-718 limits assumed): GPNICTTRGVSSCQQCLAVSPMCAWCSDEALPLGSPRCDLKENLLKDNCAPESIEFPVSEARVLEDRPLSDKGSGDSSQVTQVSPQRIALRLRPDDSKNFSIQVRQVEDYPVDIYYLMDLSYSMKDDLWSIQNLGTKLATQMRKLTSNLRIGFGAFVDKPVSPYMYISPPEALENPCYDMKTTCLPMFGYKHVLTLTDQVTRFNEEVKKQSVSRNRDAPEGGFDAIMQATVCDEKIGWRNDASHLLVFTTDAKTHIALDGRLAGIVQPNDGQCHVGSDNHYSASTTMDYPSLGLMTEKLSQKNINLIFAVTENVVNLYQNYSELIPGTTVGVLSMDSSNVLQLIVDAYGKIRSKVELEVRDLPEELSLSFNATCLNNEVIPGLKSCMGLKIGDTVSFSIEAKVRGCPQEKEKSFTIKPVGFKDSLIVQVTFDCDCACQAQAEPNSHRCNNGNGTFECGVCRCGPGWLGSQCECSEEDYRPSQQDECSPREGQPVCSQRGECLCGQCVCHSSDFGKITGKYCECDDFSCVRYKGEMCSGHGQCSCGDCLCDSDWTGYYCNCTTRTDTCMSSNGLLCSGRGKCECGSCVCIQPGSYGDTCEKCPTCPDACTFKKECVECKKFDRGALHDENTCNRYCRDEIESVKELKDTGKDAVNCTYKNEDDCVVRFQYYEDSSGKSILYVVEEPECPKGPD
T2 sequence (P06756 31-992 limits assumed): as the sequence (P06756 31-992 limits assumed) above
T2 sequence (P26012 43-684 limits assumed): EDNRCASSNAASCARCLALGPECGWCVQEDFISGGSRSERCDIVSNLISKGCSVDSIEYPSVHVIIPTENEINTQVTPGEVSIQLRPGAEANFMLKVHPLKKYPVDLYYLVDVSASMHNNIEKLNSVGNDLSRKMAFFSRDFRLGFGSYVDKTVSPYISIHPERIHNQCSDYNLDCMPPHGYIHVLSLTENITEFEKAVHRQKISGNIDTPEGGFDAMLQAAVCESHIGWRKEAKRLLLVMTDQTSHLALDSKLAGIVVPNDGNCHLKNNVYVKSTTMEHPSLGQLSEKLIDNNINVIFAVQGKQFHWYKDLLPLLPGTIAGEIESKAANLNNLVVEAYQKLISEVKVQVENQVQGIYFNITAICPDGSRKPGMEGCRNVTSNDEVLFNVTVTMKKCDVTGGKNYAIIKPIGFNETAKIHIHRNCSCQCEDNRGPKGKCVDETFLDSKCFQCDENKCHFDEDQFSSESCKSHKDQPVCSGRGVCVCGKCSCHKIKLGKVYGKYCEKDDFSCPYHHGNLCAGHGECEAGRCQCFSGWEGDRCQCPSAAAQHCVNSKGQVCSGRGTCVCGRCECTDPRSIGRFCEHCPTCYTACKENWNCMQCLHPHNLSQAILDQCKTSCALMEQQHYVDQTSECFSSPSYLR
T3 sequence (P06756 31-992 limits assumed): as the sequence (P06756 31-992 limits assumed) above
T3 sequence (P05556 21-728 limits assumed): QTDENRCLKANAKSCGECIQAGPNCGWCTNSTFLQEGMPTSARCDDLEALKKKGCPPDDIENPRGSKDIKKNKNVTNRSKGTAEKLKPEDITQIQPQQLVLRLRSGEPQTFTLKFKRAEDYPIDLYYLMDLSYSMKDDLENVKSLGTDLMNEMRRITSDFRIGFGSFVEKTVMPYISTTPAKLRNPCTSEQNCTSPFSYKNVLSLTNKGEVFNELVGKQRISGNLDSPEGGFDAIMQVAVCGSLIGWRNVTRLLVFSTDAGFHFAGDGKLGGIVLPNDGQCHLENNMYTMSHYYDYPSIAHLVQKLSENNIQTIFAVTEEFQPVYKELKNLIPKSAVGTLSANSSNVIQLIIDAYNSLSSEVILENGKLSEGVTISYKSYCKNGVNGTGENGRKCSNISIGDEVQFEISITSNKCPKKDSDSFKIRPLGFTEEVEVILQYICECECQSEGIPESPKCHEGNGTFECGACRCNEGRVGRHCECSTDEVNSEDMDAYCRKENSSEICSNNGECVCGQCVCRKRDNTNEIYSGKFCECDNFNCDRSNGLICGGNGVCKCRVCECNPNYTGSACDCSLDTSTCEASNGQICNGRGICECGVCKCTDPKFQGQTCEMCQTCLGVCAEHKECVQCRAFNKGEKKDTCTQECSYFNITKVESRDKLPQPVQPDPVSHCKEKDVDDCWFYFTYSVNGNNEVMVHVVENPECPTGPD

Row | SMILES | IC50 [1] [µM] | IC50 [2] [µM] | IC50 [3] [µM] | IC50 [4] [µM]
1 | Cn1nc(CC(CC(=O)O)c2ccc3c(c2)OCCO3)cc1OCCc1ccc2c(n1)NCCC2 (stereo not shown) [Example 1, 3-(2,3-dihydrobenzo[b][1,4]dioxin-6-yl)-4-(1-methyl-5-(2-(5,6,7,8-tetrahydro-1,8-naphthyridin-2-yl)ethoxy)-1H-pyrazol-3-yl)butanoic Acid] | 0.035 | 0.052 | 0.006 | 0.005
2 | Cn1nc(CC(CC(=O)O)c2cc(F)cc(Cl)c2)cc1OCCc1ccc2c(n1)NCCC2 (stereo not shown) [Example 2, 3-(3-chloro-5-fluorophenyl)-4-(1-methyl-5-(2-(5,6,7,8-tetrahydro-1,8-naphthyridin-2-yl)ethoxy)-1H-pyrazol-3-yl)butanoic Acid] | 0.043 | 0.032 | 0.005 | 0.004
3 | COc1ccc(C(CC(=O)O)Cc2cc(OCCc3ccc4c(n3)NCCC4)n(C)n2)cc1F (stereo not shown) [Example 3, 3-(3-fluoro-4-methoxyphenyl)-4-(1-methyl-5-(2-(5,6,7,8-tetrahydro-1,8-naphthyridin-2-yl)-ethoxy)-1H-pyrazol-3-yl)butanoic Acid] | 0.099 | 0.114 | 0.005 | 0.003
4 | Cn1nc(CC(CC(=O)O)c2ccc(Br)c(F)c2)cc1OCCc1ccc2c(n1)NCCC2 (stereo not shown) [Example 4, 3-(4-bromo-3-fluorophenyl)-4-(1-methyl-5-(2-(5,6,7,8-tetrahydro-1,8-naphthyridin-2-yl)ethoxy)-1H-pyrazol-3-yl)butanoic Acid] | 0.189 | 0.079 | 0.005 | 0.003
5 | Cn1nc(CC(CC(=O)O)c2ccc(F)c(Br)c2)cc1OCCc1ccc2c(n1)NCCC2 (stereo not shown) [Example 5, 3-(3-bromo-4-fluorophenyl)-4-(1-methyl-5-(2-(5,6,7,8-tetrahydro-1,8-naphthyridin-2-yl)ethoxy)-1H-pyrazol-3-yl)butanoic Acid] | 0.073 | 0.016 | 0.011 | 0.006
6 | Cn1nc(CC(CC(=O)O)c2cccc(Br)c2)cc1OCCc1ccc2c(n1)NCCC2 (stereo not shown) [Example 6, 3-(3-bromophenyl)-4-(1-methyl-5-(2-(5,6,7,8-tetrahydro-1,8-naphthyridin-2-yl)ethoxy)-1H-pyrazol-3-yl)butanoic Acid] | 0.008 | 0.019 | 0.01 | 0.005
7 | Cn1nc(CC(CC(=O)O)c2ccc(F)c(C#N)c2)cc1OCCc1ccc2c(n1)NCCC2 (stereo not shown) [Example 7, 3-(3-cyano-4-fluorophenyl)-4-(1-methyl-5-(2-(5,6,7,8-tetrahydro-1,8-naphthyridin-2-yl)ethoxy)-1H-pyrazol-3-yl)butanoic Acid] | 0.05 | 0.023 | 0.007 | 0.007
8 | Cn1nc(CC(CC(=O)O)c2ccc(C#N)c(F)c2)cc1OCCc1ccc2c(n1)NCCC2 (stereo not shown) [Example 8] | 0.052 | 0.048 | 0.012 | 0.006
9 | Cn1nc(CC(CC(=O)O)c2cccc(C#N)c2)cc1OCCc1ccc2c(n1)NCCC2 (stereo not shown) [Example 9, 3-(3-cyanophenyl)-4-(1-methyl-5-(2-(5,6,7,8-tetrahydro-1,8-naphthyridin-2-yl)ethoxy)-1H-pyrazol-3-yl)butanoic Acid] | 0.012 | 0.062 | 0.009 | 0.006
10 | Cn1nc(CC(CC(=O)O)c2cc(Br)cc(C(F)(F)F)c2)cc1OCCc1ccc2c(n1)NCCC2 (stereo not shown) [Example 10, 3-(3-bromo-5-(trifluoromethyl)phenyl)-4-(1-methyl-5-(2-(5,6,7,8-tetrahydro-1,8-naphthyridin-2-yl)ethoxy)-1H-pyrazol-3-yl)butanoic Acid] | 0.025 | 0.012 | 0.017 | 0.0036
11 | Cn1nc(CC(CC(=O)O)c2cc(Br)cc(OC(F)(F)F)c2)cc1OCCc1ccc2c(n1)NCCC2 (stereo not shown) [Example 11, 3-(3-bromo-5-(trifluoromethoxy)phenyl)-4-(1-methyl-5-(2-(5,6,7,8-tetrahydro-1,8-naphthyridin-2-yl)ethoxy)-1H-pyrazol-3-yl)butanoic Acid] | 0.06 | 0.042 | 0.011 | 0.006
12 | COc1ccc(C(F)(F)F)cc1C(CC(=O)O)Cc1cc(OCCc2ccc3c(n2)NCCC3)n(C)n1 (stereo not shown) [Example 13, 3-(2-methoxy-5-(trifluoromethyl)phenyl)-4-(1-methyl-5-(2-(5,6,7,8-tetrahydro-1,8-naphthyridin-2-yl)ethoxy)-1H-pyrazol-3-yl)butanoic Acid Trifluoroacetate] | 0.051 | 0.026 | 0.0058 | 0.011
13 | COc1ccc(Br)cc1C(CC(=O)O)Cc1cc(OCCc2ccc3c(n2)NCCC3)n(C)n1 (stereo not shown) [Example 14, 3-(5-bromo-2-methoxyphenyl)-4-(1-methyl-5-(2-(5,6,7,8-tetrahydro-1,8-naphthyridin-2-yl)ethoxy)-1H-pyrazol-3-yl)butanoic acid trifluoroacetate] | 0.022 | 0.012 | 0.005 | 0.0067
14 | COc1ccc([C@H](CC(=O)O)Cc2cc(OCCc3ccc4c(n3)NCCC4)n(C)n2)cc1F [Example 15, (3S)-3-(3-fluoro-4-methoxyphenyl)-4-(1-methyl-5-(2-(5,6,7,8-tetrahydro-1,8-naphthyridin-2-yl)ethoxy)-1H-pyrazol-3-yl)butanoic Acid] | 0.049 | 0.09 | 0.0038 | 0.0026
15 | Cn1nc(CC(CC(=O)O)c2cc(Br)cc(C(C)(C)C)c2)cc1OCCc1ccc2c(n1)NCCC2 (stereo not shown) [Example 16, 3-(3-bromo-5-tert-butyl-phenyl)-4-(1-methyl-5-(2-(5,6,7,8-tetrahydro-1,8-naphthyridin-2-yl)ethoxy)-1H-pyrazol-3-yl)butanoic Acid] | 0.08 | 0.0078 | 0.003 | 0.0077
16 | Cn1nc(CC(CC(=O)O)c2cc(C#N)cc(C(C)(C)C)c2)cc1OCCc1ccc2c(n1)NCCC2 (stereo not shown) [Example 17] | 0.028 | 0.0069 | 0.0044 | 0.0074
